From patent publication US8435549B2, “Halogen alkoxy spirocyclic tetramic and tetronic acid derivatives” (Bayer Cropscience AG, priority 2007, dated 2013)

Tests used:
[1] = test system: green peach aphid (Myzus persicae); assay: Enhancement of activity by ammonium/phosphonium salts, Myzus persicae test; format: in vivo; settings: Myzus persicae on bell pepper, active compound 4 ppm
Procedure: To produce a suitable preparation of active compound, 1 part by weight of active compound is mixed with the stated amounts of solvent and emulsifier, and the concentrate is diluted with water to the desired concentration. For application with ammonium or phosphonium salts, these are added to the spray liquor in a concentration of 1000 ppm.
Bell pepper plants (Capsicum annuum) which are heavily infested by the green peach aphid (Myzus persicae) are treated by spraying to runoff point with the active compound preparation of the desired concentration. After the desired period of time, the kill in % is determined. 100% means that all animals have been killed; 0% means that none of the animals have been killed.

[2] = Determination of the log P values (LC/MS, HCOOH method); format: physicochemical; settings: for log P: HPLC reversed-phase C18, HCOOH method; for chromatographic logP: reversed-phase C18 HPLC column, acidic range (pH 3.4)
Procedure: Determination of the Log P Values (LC/MS, HCOOH Method):
The log P values given in the tables were determined in accordance with EEC Directive 79/831 Annex V.A8 by HPLC (High Performance Liquid Chromatography) using a reversed-phase column (C 18). Temperature: 55° C.
Mobile phases for determination in the acidic range (pH 3.4):
Mobile phase A: acetonitrile+1 ml formic acid/liter. Mobile phase B: water+0.9 ml formic acid/liter. Gradient: from 10% mobile phase A/90% mobile phase B to 95% mobile phase A/5% mobile phase B over 4.25 min. Calibration was carried out using unbranched alkan-2-ones (having 3 to 16 carbon atoms) with known log P values (determination of the log P values by the retention times using linear interpolation between two successive alkanones). The lambda max values were determined in the maxima of the chromatographic signals using the UV spectra from 200 nm to 400 nm.

[3] = test system: cotton aphid (Aphis gossypii); assay: Enhancement of activity by ammonium/phosphonium salts in combination with penetrants, Aphis gossypii test; format: in vivo
Procedure: To produce a suitable preparation of active compound, 1 part by weight of active compound is mixed with the stated amounts of solvent and emulsifier, and the concentrate is diluted with emulsifier-containing water to the desired concentration. For application with ammonium or phosphonium salts and penetrants (rapeseed oil methyl esters 500 EW) these are added to the spray liquor in each case in a concentration of 1000 ppm.
Cotton plants (Gossypium hirsutum) which are heavily infested by the cotton aphid (Aphis gossypii) are treated by spraying to runoff point with the active compound preparation of the desired concentration.
After the desired period of time, the kill in % is determined. 100% means that all the aphids have been killed; 0% means that none of the aphids have been killed.

[4] = test system: crop plants; assay: Use of safeners: plant compatibility of test substances in crop plants; format: in vivo
Procedure: • Seeds of monocotyledonous and dicotyledonous weed and crop plants are placed in sandy loam in wood fiber pots, covered with soil and cultivated in a greenhouse under good growth conditions. 2 to 3 weeks after sowing, the test plants are treated at the one-leaf stage. The test compounds, formulated as wettable powders (WP) are then, with a water application rate of 600 l/ha (converted), with 0.2% of wetting agent added, sprayed at various dosages onto the green parts of the plants. After the test plants have been kept in the greenhouse under optimum growth conditions for about 3 weeks, the activity of the preparations is rated visually in comparison to untreated controls (herbicidal activity in percent: 100% activity=the plants have died, 0% activity=like control plants). • In addition to the compounds mentioned above, the following compounds show a post-emergence action of ≧80% against Echinocloa crus-galli, Lolium multiflorum and Setaria viridis at 80 g/ha: I-1-a-2, I-1-a-4, I-1-a-5, I-1-a-7, I-1-a-9, I-1-a-12, I-1-a-13, I-1-a-14, I-1-b-3.
Use of Safeners: • If it is additionally to be tested as to whether safeners can improve the plant compatibility of test substances in the case of crop plants, the following options are used for applying the safeners: • seeds of the crop plants are, before sowing, dressed with the safener substance (the amount of safener stated in percent, based on the weight of the seed) • before application of the test substances, the crop plants are sprayed with the safener at a certain application rate per hectare (usually 1 day before the application of the test substances) • the safener is applied together with the test substance as a tank mix (the amount of safener stated in g/ha or as a ratio, based on the herbicide).
• Application of the safener 1 day prior to the herbicide

[5] = α isomer of the α + β mixture, 55° C.
[6] = β isomer of the α + β mixture, 55° C.
[7] = compounds of formula (I-2-b), single isomer as labelled
[8] = single isomer isolated by preparative HPLC (formula I-2-a)

Cc1cc(C)c(C2=C(O)C3(CCC(OCC(F)(F)F)CC3)NC2=O)c(C)c1 (mixture of isomers) [Example I-1-a-5]
Kill rate/% after 6 days ([1]; +AS (1000 ppm)): 99% | Kill rate/% after 6 days ([1]; without AS): 5%

Cc1ccc(C)c(C2=C(O)C3(CCC(OCC(F)(F)F)CC3)OC2=O)c1 (mixture of isomers) [Example I-2-a-2]
log P [2, 5]: α 3.10 | log P [2, 6]: β 2.95

Cc1cc(C)c(C2=C(O)C3(CCC(OCC(F)(F)F)CC3)OC2=O)c(C)c1 (mixture of isomers) [Example I-2-a-3]
log P [2, 5]: α 3.31 | log P [2, 6]: β 3.18

Cc1cc(C)c(C2=C(O)C3(CCC(OCC(F)(F)F)CC3)OC2=O)cc1C (mixture of isomers) [Example I-2-a-4]
log P [2, 5]: α 3.34 | log P [2, 6]: β 3.20

CCc1cc(C)cc(C)c1C1=C(O)C2(CCC(OCC(F)(F)F)CC2)OC1=O (mixture of isomers) [Example I-2-a-5]
log P [2, 5]: α 3.54 | log P [2, 6]: β 3.41

Cc1ccc(-c2ccc(Cl)cc2)c(C)c1C1=C(O)C2(CCC(OCC(F)(F)F)CC2)OC1=O (mixture of isomers) [Example I-2-a-6]
log P [2, 5]: α 4.29 | log P [2, 6]: β 4.13

Cc1cc(Cl)cc(C)c1C1=C(O)C2(CCC(OCC(F)(F)F)CC2)OC1=O (mixture of isomers) [Example I-2-a-8]
log P [2, 5]: 3.39 | log P [2, 6]: 3.25

COc1cc(C)cc(C)c1C1=C(O)C2(CCC(OCC(F)(F)F)CC2)OC1=O (mixture of isomers) [Example I-2-a-11]
log P [2, 5]: α 3.07 | log P [2, 6]: β 2.94

CCc1cc(-c2ccc(Cl)cc2)cc(C)c1C1=C(O)C2(CCC(OCC(F)(F)F)CC2)OC1=O (mixture of isomers) [Example I-2-a-12]
log P [2, 5]: α 4.51 | log P [2, 6]: β 4.36

Cc1ccc(-c2ccc(F)cc2)c(C)c1C1=C(O)C2(CCC(OCC(F)(F)F)CC2)NC1=O (single isomer, unassigned) [Example I-1-a-3]
Kill rate/% after 6 days ([3]; 4 ppm, +AS (1000 ppm)): 0% | Kill rate/% after 6 days ([3]; 4 ppm, +RME (1000 ppm)): 5% | Kill rate/% after 6 days ([3]; 4 ppm, +RME + AS (1000 ppm each)): 25% | Kill rate/% after 6 days ([3]; 4 ppm, no additive): 0% | Kill rate/% after 6 days ([3]; 20 ppm, +AS (1000 ppm)): 5% | Kill rate/% after 6 days ([3]; 20 ppm, +RME (1000 ppm)): 10% | Kill rate/% after 6 days ([3]; 20 ppm, +RME + AS (1000 ppm each)): 90% | Kill rate/% after 6 days ([3]; 20 ppm, no additive): 25%

CCc1cc(C)cc(Br)c1C1=C(O)C2(CCC(OCC(F)(F)F)CC2)NC1=O (single isomer, unassigned) [Example I-1-a-7]
10 days after application Summer wheat observed (%) ([4]; 12.5 g a.i./ha): 40% | 28 days after application Summer wheat observed (%) ([4]; 12.5 g a.i./ha): 10% | 10 days after application Summer wheat observed (%) ([4]; 25 g a.i./ha): 50% | 28 days after application Summer wheat observed (%) ([4]; 25 g a.i./ha): 20% | 10 days after application Summer wheat observed (%) ([4]; 50 g a.i./ha): 60% | 28 days after application Summer wheat observed (%) ([4]; 50 g a.i./ha): 30% | 10 days after application Summer wheat observed (%) ([4]; 100 g a.i./ha): 60% | 28 days after application Summer wheat observed (%) ([4]; 100 g a.i./ha): 40%

Cc1ccc(C)c(C2=C(OC(=O)C(C)C)C3(CCC(OCC(F)(F)F)CC3)OC2=O)c1 (single isomer, unassigned) [Example I-2-b-5]
log P [2, 7]: 4.88

Cc1ccc(C)c(C2=C(OC(=O)C(C)C)C3(CCC(OCC(F)(F)F)CC3)OC2=O)c1 (single isomer, unassigned) [Example I-2-b-6]
log P [2, 7]: 4.62

Cc1cc(Cl)cc(C)c1C1=C(OC(=O)C(C)C)C2(CCC(OCC(F)(F)F)CC2)OC1=O (single isomer, unassigned) [Example I-2-b-15]
log P [2, 7]: 5.25

Cc1cc(Cl)cc(C)c1C1=C(OC(=O)C(C)C)C2(CCC(OCC(F)(F)F)CC2)OC1=O (single isomer, unassigned) [Example I-2-b-16]
log P [2, 7]: 4.97

CCc1cc(-c2ccc(Cl)cc2)cc(C)c1C1=C(OC(=O)C(C)C)C2(CCC(OCC(F)(F)F)CC2)OC1=O (single isomer, unassigned) [I-2-b-17]
log P [2, 7]: 6.33

CCc1cc(-c2ccc(Cl)cc2)cc(C)c1C1=C(OC(=O)C(C)C)C2(CCC(OCC(F)(F)F)CC2)OC1=O (single isomer, unassigned) [I-2-b-18]
log P [2, 7]: 6.02

COc1cc(C)cc(C)c1C1=C(OC(=O)C(C)C)C2(CCC(OCC(F)(F)F)CC2)OC1=O (single isomer, unassigned) [I-2-b-19]
log P [2, 7]: 4.72

COc1cc(C)cc(C)c1C1=C(OC(=O)C(C)C)C2(CCC(OCC(F)(F)F)CC2)OC1=O (single isomer, unassigned) [I-2-b-20]
log P [2, 7]: 4.48

CCc1cc(C)cc(CC)c1C1=C(O)C2(CCC(OCC(F)(F)F)CC2)OC1=O (stereo not shown) [Example I-2-a-1]
chromatographic logP ([2]; pH 3.4, α isomer of the isomer mixture, HPLC): 3.78 | chromatographic logP ([2]; pH 3.4, β isomer of the isomer mixture, HPLC): 3.64

Cc1cc(C)c(C2=C(O)C3(CCC(OCC(F)(F)F)CC3)OC2=O)c(C)c1 (stereo not shown) [Example I-2-a-9]
log P [2, 8]: 3.29

Cc1cc(C)c(C2=C(O)C3(CCC(OCC(F)(F)F)CC3)OC2=O)c(C)c1 (stereo not shown) [Example I-2-a-10]
log P [2, 8]: 3.16

CCc1cc(C)cc(CC)c1C1=C(OC(=O)C(C)C)[C@]2(CC[C@H](OCC(F)(F)F)CC2)OC1=O [Example I-2-b-1]
chromatographic logP ([2]; pH 3.4, HPLC): 5.69

CCc1cc(C)cc(C)c1C1=C(OC(=O)C(C)C)[C@]2(CC[C@@H](OCC(F)(F)F)CC2)OC1=O [Example I-2-b-2]
chromatographic logP ([2]; pH 3.4, HPLC): 5.4

CCc1cc(C)cc(C)c1C1=C(OC(=O)C(C)C)[C@]2(CC[C@H](OCC(F)(F)F)CC2)OC1=O [Example I-2-b-3]
log P [2, 7]: 5.44

CCc1cc(C)cc(C)c1C1=C(OC(=O)C(C)C)C2(CCC(OCC(F)(F)F)CC2)OC1=O (stereo not shown) [Example I-2-b-4]
log P [2, 7]: 5.15

Cc1cc(C)c(C2=C(OC(=O)C(C)C)[C@]3(CC[C@H](OCC(F)(F)F)CC3)OC2=O)cc1C [Example I-2-b-7]
log P [2, 7]: 5.14

Cc1cc(C)c(C2=C(OC(=O)C(C)C)C3(CCC(OCC(F)(F)F)CC3)OC2=O)cc1C (stereo not shown) [Example I-2-b-8]
log P [2, 7]: 4.87

Cc1cc(C)c(C2=C(OC(=O)C(C)C)[C@]3(CC[C@H](OCC(F)(F)F)CC3)OC2=O)c(C)c1 [Example I-2-b-9]
log P [2, 7]: 5.14

Cc1cc(C)c(C2=C(OC(=O)C(C)C)C3(CCC(OCC(F)(F)F)CC3)OC2=O)c(C)c1 (stereo not shown) [Example I-2-b-10]
log P [2, 7]: 4.88

Cc1ccc(-c2ccc(Cl)cc2)c(C)c1C1=C(OC(=O)C(C)C)[C@]2(CC[C@H](OCC(F)(F)F)CC2)OC1=O [Example I-2-b-11]
log P [2, 7]: 6.11

Cc1ccc(-c2ccc(Cl)cc2)c(C)c1C1=C(OC(=O)C(C)C)C2(CCC(OCC(F)(F)F)CC2)OC1=O (stereo not shown) [Example I-2-b-12]
log P [2, 7]: 5.83

Cc1ccc(-c2ccc(Cl)cc2)cc1C1=C(OC(=O)C(C)C)[C@]2(CC[C@H](OCC(F)(F)F)CC2)OC1=O [Example I-2-b-13]
log P [2, 7]: 5.84

Cc1ccc(-c2ccc(Cl)cc2)cc1C1=C(OC(=O)C(C)C)C2(CCC(OCC(F)(F)F)CC2)OC1=O (stereo not shown) [Example I-2-b-14]
log P [2, 7]: 5.55
